Data as given in ChEMBL document CHEMBL2440087, “Novel complex crystal structure of prolyl hydroxylase domain-containing protein 2 (PHD2): 2,8-Diazaspiro[4.5]decan-1-ones as potent, orally bioavailable PHD2 inhibitors” (Bioorg Med Chem, 2013).

What was measured:
Mus musculus [1] = assay: Dose normalized AUC in C57BL/6 mouse at 10 mg/kg, po; type: ADME, organism-based; set-up: dose 10 mg/kg, route oral; details: in vivo
Mus musculus [2] = assay: Dose normalized AUC (0 to t) in C57BL/6 mouse at 10 mg/kg, po; type: ADME, organism-based; set-up: dose 10 mg/kg, route oral; details: in vivo

Row | SMILES | AUC/dose (Mus musculus [1]) | AUCt/dose (Mus musculus [2])
1 | Cc1cccnc1CN1CCC2(CC1)CCN(c1ccc(-c3ccc(C(=O)O)cc3)cc1)C2=O | 634 ng·h/mL/mg/kg | 
2 | Cc1cc(CCC(=O)O)cnc1CN1CCC2(CC1)CCN(c1ccc(-c3ccccc3)cc1)C2=O |  | 22.6 ng·h/mL/mg/kg
